Assays:
[1] = tested on: JNK, Akt, RelA, ERK and p38 MAPK; test: Phosphorylation of downstream signaling molecules (Milliplex MAP assay, immunoblotting); assay type: cell-based, human; details: 10 nM rimiducid, iMC T cells
Description: Immunoblotting. Primary human T cells transduced with either SFG-FKBP-2A-ΔCD19 or SFG-iMC-2A-ΔCD19 (4×10^6 per point) were cultured for the indicated time points in a 37° C. water bath with either 10 nM rimiducid, 250 nM each PMA and ionomycin, or media alone. Media as removed by aspiration after centrifugation at 6000 rpm for 2 min at 4° C. Cytoplasmic extracts were prepared by lysis in 100 μl radioimmuno-precipitation assay buffer (50 mM Tris, 150 mM NaCl, 1% NP40, 2 mM EDTA, 0.1% SDS, 0.25% sodium deoxycholate) containing 1×MS-SAFE (Roche). Lysates were incubated on ice for 10 min and cytoplasmic fractions were cleared by centrifugation at 11,000 rpm for 20 min at 4° C. […] Bound Abs were detected by HRP-conjugated goat-anti-rabbit IgG Ab (Pierce), followed by ECL (Pierce) and detection on a Gel Logic imaging system (Carestream). […]
Phosphorylated epitopes were detected in Assay Buffer 2 (MILLIPLEX MAP kit) with antibodies specific for p-RelA(S536), p-Akt(S473), p-p38(T180/Y182), p-JNK(T183/Y185), p-ERK1/2(T202/Y204) (custom MILLIPLEX Magnetic Bead MAPMATE kit; Millipore) or GAPDH as a control for total protein content. Fold increase in phosphorylation was calculated by net MFI of rimiducid treatment at a given time point divided by the net MFI of the corresponding non-stimulated time point. […]

[2] = tested on: IC-21 macrophages; test: IL-6 ELISA of adenovirus-transduced IC-21 macrophages with AP1903; assay type: cell-based
Excerpt: Inducible chimeric polypeptides of the present application were expressed in various cell types along with a tumor antigen. […] Cell lines included keratinocytes, melanocytes (for example, B16-F10 melanoma), macrophages (for example, IC-21), and fibroblasts (for example, BLK-CL4). FIG. 22 provides a schematic overview of the process by which expression of the chimeric polypeptide, after contacting AP1903, can induce the expression of inflammatory cytokines and chemokines in the transduced cell. FIG. 23 provides a schematic of an assay used to measure PSMA expression and cytokine secretion in transduced cells. The cells were transduced with one of four adenovirus Ad5 vectors: Ad5-iMC-RP-FL; Ad5-iMC-P2A-P-FL; Ad5f35iMC-RP-FL; or Ad5f35iMC-P2A-FL. […] IC-21 macrophages were cultured at 100,000 cells/ml/well in 24-well plates. […] A. Cells were labeled with anti-human PSMA antibody, LNI-17, (Biolegend, San Diego, Calif.) and PSMA expression was analyzed by flow cytometry. […] B. IL-6 was evaluated from the culture supernatants by ELISA (e-Bioscience, San Diego, Calif.). […] A. Cells were labeled with anti-human PSMA antibody, LNI-17, (Biolegend, San Diego, Calif.) and PSMA expression was analyzed by flow cytometry. […] B. IL-6 was evaluated from the culture supernatants by ELISA (e-Bioscience, San Diego, Calif.). […] IL-6 was evaluated from the culture supernatants by ELISA (e-Bioscience, San Diego, Calif.).

Question: For `CC[C@H](C(=O)N1CCCC[C@H]1C(=O)O[C@H](CCc1ccc(OC)c(OC)c1)c1cccc(OCC(=O)NCCNC(=O)COc2cccc([C@@H](CCc3ccc(OC)c(OC)c3)OC(=O)[C@@H]3CCCCN3C(=O)[C@@H](CC)c3cc(OC)c(OC)c(OC)c3)c2)c1)c1cc(OC)c(OC)c(OC)c1` (relative stereo) [rimiducid, 2-Piperidinecarboxylic acid, 1-[(2S)-1-oxo-2-(3,4,5-trimethoxyphenyl)butyl]-, 1,2-ethanediylbis [imino(2-oxo-2,1-ethanediyl)oxy-3,1-phenylene[(1R)-3-(3,4-Dimethoxyphenyl)propylidene]] ester, [2S-[1(R*),2R*[S*[S*[1(R*),2R*]]]]]-(9Cl)], which “onset of signaling after exposure” value [1] is on record?
Answer: Its value is at most 15 min.

Question: And the “phosphorylation of signaling pathways” value [1]?
Answer: Its value is “each of these signaling pathways show increased phosphorylation in T cells, with MAPK and JNK showing the greatest rimiducid-dependent activation”.

Question: What about the IL-6 production ([2]; 100 nM AP1903) of the same compound?
Answer: The IL-6 production was “response to AP1903 by producing IL-6”.

Question: What about the “activation of IL-6, dependence on AP1903” value ([2]; macrophages) of the same compound?
Answer: The value was “occurred in the presence or absence of AP1903”.

— patent US10934346B2, “Modified T cell comprising a polynucleotide encoding an inducible stimulating molecule comprising MyD88, CD40 and FKBP12” (priority 2014, dated 2021)
